The source of these data is patent US20080305092A1, “Methods of treating autoimmune disease via CTLA-4IG” (THE REGENTS OF THE UNIVERSITY OF MICHIGAN, priority 1993, published 2008).

For this assay, the system named is Jurkat line JHMI-2.2. Description: Cell death of Jurkat cells, visual grading and trypan blue. The class given is cell-based, human. Particulars: scored after 1 to 3 days; 9.3 mAb 10 μg/ml, carbacol 30 μM. On the procedure: A series of experiments were done to test whether anti-CD28 mAb might prevent cell death in mature T cells. Jurkat leukemia cells are commonly used as an example of mature T cells that mimic physiologic effects found in peripheral blood T cells. […] The Jurkat line JHMI-2.2 was obtained from A. Weiss (UCSF); the muscarinic M1 receptor subtype has been transfected and is stably expressed in these cells. JHMI-2.2 cells, 0.3×10^6/well, were added to culture wells in complete medium, or to wells that contained plastic-adsorbed anti-CD3 mAb G19-4, in the presence or absence of 9.3 mAb 10 μg/ml, or 9.3 mAb alone. Cell death was scored after 1 to 3 days of culture and graded as 0 (none), 1+(20 to 70% of cells dead), and 2+(70 to 100% of cells dead), and was determined by visual inspection of the wells, and confirmed by trypan blue permeability.

`C[N+](C)(C)CCOC(N)=O` [Carbacol, carbacol]: the “CELL DEATH (GRADE 0-2)” value was 1+ (1+(20 to 70% of cells dead)).
